Reference: patent US9593305B2, “Differentiation of pluripotent stem cells” (Janssen Biotech, Inc., priority 2008, dated 2017)

System: H1 human embryonic stem cells
Test: Four-step differentiation with GDF-8, RT-PCR of pancreatic endoderm markers after step 4 (Example 19)
Format: cell-based
Conditions: 100 ng/ml GDF-8 with Wnt3a or with 2.5 μM Compound 40
Method: The differentiation process was started three days after the cells were seeded into 6-well plates. A four-step protocol was used for the in vitro differentiation of H1 human embryonic stem cells to cells expressing markers characteristic of the pancreatic endoderm lineage. Step 1 was conducted over three days to generate cells expressing markers characteristic of the definitive endoderm lineage. On the first day of step 1, differentiation was initiated by aspirating spent culture medium and adding an equal volume of RPMI-1640 basal medium (Invitrogen; Cat #22400) with 2% Albumin Bovine Fraction V, Fatty Acid Free (FAF BSA) (Proliant Biologicals; Cat #SKU 68700) and 8 ng/ml bFGF. In one treatment group, duplicate sets of cells were treated with 100 ng/ml GDF-8 (R&D Systems; Cat #788-G8) and 20 ng/ml Wnt3a (R&D Systems; Cat #1324-WN/CF). In a second treatment group, duplicate sets of cells were treated with 100 ng/ml GDF-8 and 2.5 μM Compound 40. On the second and third day of step 1 differentiation, cells in all treatment groups were fed with RPMI-1640 containing 2% FAF BSA, 8 ng/ml bFGF and 100 ng/ml GDF-8 but without the addition of Wnt3a or Compound 40. […]
Step 4 of the differentiation protocol was carried out over three days. […] On the following day, cells in suspension culture were collected and counted. […]

Compound | markers characteristic of the pancreatic endoderm lineage at the conclusion of step 4 (RT-PCR)
C=CCN1CC(=O)NCCCc2cncc(c2)-c2ncnc(n2)Nc2cccc(c2)C1 [Compound 40, 14-Prop-2-en-1-yl-3,5,7,14,17,23,27-heptaazatetracyclo[19.3.1.1˜2.6˜0.1˜8,12˜]heptacosa-1(25), 2(27), 3,5,8(26), 9,11,21,23-nonaen-16-one] | expressed equivalent levels of markers characteristic of the pancreatic endoderm lineage
GDF-8: growth factor GDF-8, also known as myostatin, member of the TGF-β family | expressed equivalent levels of markers characteristic of the pancreatic endoderm lineage
